These are literature values, as cited in patent US20260021105A1, “METHOD FOR TREATING PSORIASIS” (Reviva Pharmaceuticals, Inc., priority 2023, published 2026).

One data set addresses 5-HT2A (Homo sapiens, UniProt P28223). Conditions: as a weak partial agonist or neutral antagonist.
Data set [1] deals with serotonin transporter (SERT) (Homo sapiens, UniProt P31645).
A further data set deals with T1, 5-HT1A receptors (Homo sapiens, UniProt P08908).
T1 sequence (P08908 1-422): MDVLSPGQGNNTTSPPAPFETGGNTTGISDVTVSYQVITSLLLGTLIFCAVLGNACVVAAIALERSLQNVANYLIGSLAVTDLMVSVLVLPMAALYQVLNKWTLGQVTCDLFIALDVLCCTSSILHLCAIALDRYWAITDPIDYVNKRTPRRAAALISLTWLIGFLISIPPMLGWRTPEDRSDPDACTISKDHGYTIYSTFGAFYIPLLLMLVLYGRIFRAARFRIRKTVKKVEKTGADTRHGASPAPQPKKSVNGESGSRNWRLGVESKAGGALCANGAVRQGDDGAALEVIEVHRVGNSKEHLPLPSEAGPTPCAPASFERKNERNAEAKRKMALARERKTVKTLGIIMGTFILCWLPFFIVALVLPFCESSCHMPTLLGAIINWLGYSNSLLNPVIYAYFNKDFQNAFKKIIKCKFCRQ
The note with it: as partial agonist.

Another data set has as its system D2-4 receptors. Conditions: as partial agonist.
Another data set concerns 5-HT2B/7. Conditions: as an antagonist.

Chain of serotonin transporter (SERT) (P31645 whole entry, species assumed): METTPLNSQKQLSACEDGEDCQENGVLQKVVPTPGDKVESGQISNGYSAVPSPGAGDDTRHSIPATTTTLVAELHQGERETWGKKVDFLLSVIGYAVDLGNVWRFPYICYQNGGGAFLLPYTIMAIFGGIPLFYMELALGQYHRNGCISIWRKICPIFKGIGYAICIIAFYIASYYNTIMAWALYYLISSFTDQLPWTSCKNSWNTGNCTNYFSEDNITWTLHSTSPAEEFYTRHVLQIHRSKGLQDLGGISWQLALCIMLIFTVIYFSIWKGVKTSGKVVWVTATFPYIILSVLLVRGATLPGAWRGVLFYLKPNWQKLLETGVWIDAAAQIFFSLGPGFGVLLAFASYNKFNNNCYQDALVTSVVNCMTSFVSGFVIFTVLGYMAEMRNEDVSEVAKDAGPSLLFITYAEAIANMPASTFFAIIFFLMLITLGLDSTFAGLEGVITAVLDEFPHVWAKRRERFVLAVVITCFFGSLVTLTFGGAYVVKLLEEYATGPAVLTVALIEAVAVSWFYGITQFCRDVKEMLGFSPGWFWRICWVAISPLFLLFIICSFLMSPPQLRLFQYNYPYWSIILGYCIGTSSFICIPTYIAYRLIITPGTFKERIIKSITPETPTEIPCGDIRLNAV
Chain of 5-HT2A (P28223 whole entry, species assumed): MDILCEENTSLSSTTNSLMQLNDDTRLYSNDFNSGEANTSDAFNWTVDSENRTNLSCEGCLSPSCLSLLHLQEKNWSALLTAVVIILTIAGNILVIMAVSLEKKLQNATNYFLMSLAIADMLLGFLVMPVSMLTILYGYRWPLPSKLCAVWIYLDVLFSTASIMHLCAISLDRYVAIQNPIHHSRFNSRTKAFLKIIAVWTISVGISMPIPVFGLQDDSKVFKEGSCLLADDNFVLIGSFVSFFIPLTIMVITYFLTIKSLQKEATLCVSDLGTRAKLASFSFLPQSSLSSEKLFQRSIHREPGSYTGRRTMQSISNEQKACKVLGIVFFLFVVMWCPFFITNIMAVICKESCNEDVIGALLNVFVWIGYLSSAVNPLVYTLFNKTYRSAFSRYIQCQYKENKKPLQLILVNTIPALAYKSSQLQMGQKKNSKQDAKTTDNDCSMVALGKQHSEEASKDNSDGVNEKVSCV

Consider `O=C1COc2ccc(OCCCCN3CCN(c4cccc(Cl)c4Cl)CC3)cc2N1` [Brilaroxazine], for which the binding affinity entry on 5-HT2A, on 5-HT1A receptors, with D2-4 receptors and in the data set on 5-HT2B/7 was “high binding affinity” each time. In addition, the affinity entry in data set [1] was “moderate affinity”.
